Patent US20200071361A1, “ENGINEERED ANTIMICROBIAL AMPHIPHILIC PEPTIDES AND METHODS OF USE” (priority 2017, published 2020)
Converted amounts (≈) assume the structure as drawn. Like-named read-outs stand apart in the source and are kept apart here.

Experiments:
[1] = tested on: Enterococcus faecalis ATCC 700802 (V583 VRE); test: Broth microdilution MIC (Table 2); type: cell-based
Experimental: (§1) Each peptide was formulated in PBS buffer prior to testing. Peptides of SEQ ID NO:5 and SEQ ID NO:8 were brought up in 100% DMSO with 0.002% polysorbate-80 at 1.28 mg/mL (40× the highest final test concentration of 32 mcg/mL). Final test concentration of DMSO was 2.5% in the assay at the first dilution for those two compounds.
(§2) Mueller Hinton II broth (MHB II; BD; Lot Nos. 6258541 and 7143896) was used for MIC testing of aerobic organisms. 0.002% polysorbate 80 (P80) was added to the test medium.
(§3) MIC values were determined using a broth microdilution procedure described by CLSI (1, 3). Automated liquid handlers (Multidrop 384, Labsystems, Helsinki, Finland; Biomek 2000 and Biomek FX, Beckman Coulter, Fullerton Calif.) were used to conduct serial dilutions and liquid transfers.
(§4) To prepare the drug mother plates, which would provide the serial peptide dilutions for the replicate daughter plates, the wells of columns 2-12 of standard 96-well microdilution plates (Costar 3795) were filled with 150 μl of the designated diluent for each row of peptide. The test articles and comparator compounds (300 μl at 40× the highest concentration to be tested) were dispensed into the appropriate wells in column 1. The Biomek 2000 was then used to make 2-fold serial dilutions in the mother plates from column 1 through column 11. The wells of Column 12 contained no drug and served as the organism growth control wells for the assay.
(§5) The daughter plates were loaded with 185 μL per well of MHB II using the Multidrop 384. The daughter plates were completed on the Biomek FX instrument which transferred 5 uL of peptide solution from each well of a mother plate to the corresponding well of each daughter plate in a single step. A standardized inoculum of each test organism was prepared per CLSI methods. The inoculum for each organism was dispensed into sterile reservoirs divided by length (Beckman Coulter), and the Biomek 2000 was used to inoculate the plates. Daughter plates were placed on the Biomek 2000 work surface in reverse orientation so that inoculation took place from low to high drug concentration. The plates were then inoculated with 10 μL of the inoculum resulting in a final cell density of approximately 5×10^5 CFU/mL, per well.
(§6) Plates were stacked 3-4 high, covered with a lid on the top plate, placed in plastic bags, and incubated at 35° C. for 16 to 20 hrs. Following incubation, the microplates were removed from the incubator and viewed from the bottom using a plate viewer. […] The MIC was read and recorded as the lowest concentration of peptide that inhibited visible growth of the organism.

[2] = tested on: Acinetobacter baumannii ATCC BAA-1797 (MDR); test: Broth microdilution MIC (Table 2); type: cell-based
Experimental: as §1, §2, §3, §4, §5, §6

[3] = tested on: Acinetobacter baumannii ATCC 19606 (non-MDR); test: Broth microdilution MIC (Table 2); type: cell-based
Experimental: as §1, §2, §3, §4, §5, §6

[4] = tested on: Enterococcus faecium ATCC 51559 (VRE); test: Broth microdilution MIC (Table 2); type: cell-based
Experimental: as §1, §2, §3, §4, §5, §6

[5] = tested on: Streptococcus pyogenes ATCC 49399; test: Broth microdilution MIC (Table 2); type: cell-based
Experimental: as §1, §2, §3, §4, §5, §6

[6] = tested on: Streptococcus pneumoniae ATCC 49619 (QC); test: Broth microdilution MIC (Table 2); type: cell-based
Experimental: as §1, §2, §3, §4, §5, §6

[7] = tested on: Staphylococcus aureus ATCC 29213 (MSSA; QC); test: Broth microdilution MIC (Table 2); type: cell-based
Experimental: as §1, §2, §3, §4, §5, §6

[8] = tested on: Pseudomonas aeruginosa ATCC 27853 (non-MDR; QC); test: Broth microdilution MIC (Table 2); type: cell-based
Experimental: as §1, §2, §3, §4, §5, §6

[9] = tested on: Staphylococcus aureus NRS382 (USA100; HA-MRSA); test: Broth microdilution MIC (Table 2); type: cell-based
Experimental: as §1, §2, §3, §4, §5, §6

[10] = tested on: Streptococcus agalactiae ATCC 13813; test: Broth microdilution MIC (Table 2); type: cell-based; details: ATCC13813
Experimental: as §1, §2, §3, §4, §5, §6

[11] = tested on: Enterococcus faecalis ATCC 29212 (VSE; QC); test: Broth microdilution MIC (Table 2); type: cell-based
Experimental: as §1, §2, §3, §4, §5, §6

[12] = tested on: Staphylococcus aureus ATCC 43300 (MRSA); test: Broth microdilution MIC (Table 2); type: cell-based
Experimental: as §1, §2, §3, §4, §5, §6

[13] = tested on: Enterobacter spp. isolates (n = 102); test: Broth microdilution MIC, clinical isolate panel; type: cell-based, Enterobacter aerogenes and E. cloacae; details: Enterobacter spp. (n = 102)
Experimental: (§7) Comparator antibiotics were supplied by Micromyx, and stock solutions were prepared on the first day of testing using solvents recommended by CLSI (1). Stock solutions of all compounds were made at 40× the final testing concentration and stored at −80° C. prior to testing. Information regarding compound source, catalog and lot number, testing concentrations and drug diluent for the comparators and test agent are detailed below in Table 3.
(§8) The test organisms evaluated in this study consisted of clinical isolates from the Micromyx Repository and reference isolates from the American Type Culture Collection (ATCC; Manassas, Va.). The clinical isolates were obtained from USA hospitals. Upon initial receipt at Micromyx, the organisms were sub-cultured onto an appropriate agar medium. Following incubation, colonies were harvested from these plates and cell suspensions prepared and frozen at −80° C. with a cryoprotectant. Prior to testing, the isolates were streaked from frozen vials onto Trypticase Soy Agar with 5% sheep blood (Becton Dickenson [BD]; Sparks, Md.; Lot Nos. 7173618, 7166759, 7208688, 72144895, 7228505 and Remel Lenexa, Kans. Lot No. 212574). Plates were incubated at 35° C. overnight.
(§9) Mueller Hinton II broth (MHB II; BD; Lot Nos. 6258541 and 7143896) was used for MIC testing of aerobic organisms.
as §3
as §4, with “drug” for “peptide”, “drug.” for “peptide.”
The daughter plates were loaded with 185 μL per well of MHB II using the Multidrop 384. The daughter plates were completed on the Biomek FX instrument which transferred 5 µL of drug solution from each well of a mother plate to the corresponding well of each daughter plate in a single step. […]
Plates were stacked 3-4 high, covered with a lid on the top plate, placed in plastic bags, and incubated at 35° C. for 16 to 20 hrs. […] The MIC was read and recorded as the lowest concentration of drug that inhibited visible growth of the organism. […]

[14] = tested on: Pseudomonas aeruginosa isolates (n = 109); test: Broth microdilution MIC, clinical isolate panel; type: cell-based; details: for % R (percent of isolates resistant, clinical breakpoints): Pseudomonas aeruginosa (n = 109)
Experimental: as §7, §8, §9, §3
as §4, with “drug” for “peptide”, “drug.” for “peptide.”
as §5, with “µL” for “uL”, “drug” for “peptide”, “methods (1).” for “methods.”, “concentration.” for “concentration. The plates were then inoculated with 10 μL of the inoculum resulting in a final cell density of approximately 5×10^5 CFU/mL, per well.”
(§10) Plates were stacked 3-4 high, covered with a lid on the top plate, placed in plastic bags, and incubated at 35° C. for 16 to 20 hrs. Following incubation, the microplates were removed from the incubator and viewed from the bottom using a plate viewer. […] The MIC was read and recorded as the lowest concentration of drug that inhibited visible growth of the organism.
(§11) Clinical breakpoints to determine percent resistance within a given organism group were obtained from CLSI (3), with the exception of colistin for K. pneumoniae, Enterobacter spp., and E. coli, which are only available from EUCAST.

[15] = tested on: Acinetobacter spp. isolates (n = 104); test: Broth microdilution MIC, clinical isolate panel; type: cell-based; details: Acinetobacter spp. (n = 104)
Experimental: as §7, §8, §9, §3
as §4, with “drug” for “peptide”, “drug.” for “peptide.”
as §5, with “µL” for “uL”, “drug” for “peptide”, “methods (1).” for “methods.”, “concentration.” for “concentration. The plates were then inoculated with 10 μL of the inoculum resulting in a final cell density of approximately 5×10^5 CFU/mL, per well.”
as §10, §11

[16] = tested on: Klebsiella pneumoniae isolates (n = 101); test: Broth microdilution MIC, clinical isolate panel; type: cell-based; details: Klebsiella pneumoniae (n = 101)
Experimental: as §7, §8, §9, §3
as §4, with “drug” for “peptide”, “drug.” for “peptide.”
as §5, with “µL” for “uL”, “drug” for “peptide”, “methods (1).” for “methods.”, “concentration.” for “concentration. The plates were then inoculated with 10 μL of the inoculum resulting in a final cell density of approximately 5×10^5 CFU/mL, per well.”
as §10, §11

[17] = tested on: Escherichia coli isolates (n = 101); test: Broth microdilution MIC, clinical isolate panel; type: cell-based; details: Escherichia coli (n = 101)
Experimental: as §7, §8, §9, §3
as §4, with “drug” for “peptide”, “drug.” for “peptide.”
as §5, with “µL” for “uL”, “drug” for “peptide”, “methods (1).” for “methods.”, “concentration.” for “concentration. The plates were then inoculated with 10 μL of the inoculum resulting in a final cell density of approximately 5×10^5 CFU/mL, per well.”
as §10, §11

[18] = tested on: Enterococcus faecium isolates (n = 104); test: Broth microdilution MIC, clinical isolate panel; type: cell-based; details: for MIC: read-out: Mode (MIC)
Experimental: as §7, §8, §9, §3
as §4, with “drug” for “peptide”, “drug.” for “peptide.”
as §5, with “µL” for “uL”, “drug” for “peptide”, “methods (1).” for “methods.”, “concentration.” for “concentration. The plates were then inoculated with 10 μL of the inoculum resulting in a final cell density of approximately 5×10^5 CFU/mL, per well.”
as §10, §11

[19] = tested on: Staphylococcus aureus isolates (n = 104); test: Broth microdilution MIC, clinical isolate panel; type: cell-based; details: for MIC: read-out: Mode (MIC)
Experimental: as §7, §8, §9, §3
as §4, with “drug” for “peptide”, “drug.” for “peptide.”
as §5, with “µL” for “uL”, “drug” for “peptide”, “methods (1).” for “methods.”, “concentration.” for “concentration. The plates were then inoculated with 10 μL of the inoculum resulting in a final cell density of approximately 5×10^5 CFU/mL, per well.”
as §10, §11

[20] = Staphylococcus aureus (n = 104), all methicillin-resistant

## Colistin
[1]
  MIC: >32 µg/mL
[2]
  MIC: 0.25 µg/mL
[3]
  MIC: 0.25 µg/mL
[4]
  MIC: >32 µg/mL
[5]
  MIC: >32 µg/mL
[6]
  MIC: >32 µg/mL
[7]
  MIC: >32 µg/mL
[8]
  MIC: 0.25 µg/mL
[9]
  MIC: >32 µg/mL
[10]
  MIC: >32 µg/mL
[11]
  MIC: >32 µg/mL
[12]
  MIC: >32 µg/mL
[13]
  % R (percent of isolates resistant, clinical breakpoints): 5.8%
[14]
  % R (percent of isolates resistant, clinical breakpoints): 7.3%
[15]
  % R (percent of isolates resistant, clinical breakpoints): 20.2%
[16]
  % R (percent of isolates resistant, clinical breakpoints): 27.7%
[17]
  % R (percent of isolates resistant, clinical breakpoints): 0%

## CCCCCCCCCC(=O)N[C@@H](Cc1c[nH]c2ccccc12)C(=O)N[C@H](CC(N)=O)C(=O)N[C@@H](CC(=O)O)C(=O)N[C@@H]1C(=O)NCC(=O)N[C@@H](CCCN)C(=O)N[C@@H](CC(=O)O)C(=O)N[C@H](C)C(=O)N[C@@H](CC(=O)O)C(=O)NCC(=O)N[C@H](CO)C(=O)N[C@@H]([C@H](C)CC(=O)O)C(=O)N[C@@H](CC(=O)c2ccccc2N)C(=O)O[C@@H]1C [Daptomycin]
[18]; Enterococcus faecium (n = 104)
  MIC50: 4 µg/mL (≈ 2.47 µM)
  MIC90: 8 µg/mL (≈ 4.94 µM)
  MIC: 2 µg/mL (≈ 1.23 µM)
[19]; [20]
  MIC50: 0.5 µg/mL (≈ 0.309 µM)
  MIC90: 1 µg/mL (≈ 0.617 µM)
  MIC range: 0.25 to 4 µg/mL
  MIC: 0.5 µg/mL (≈ 0.309 µM)

## CN[C@H](CC(C)C)C(=O)N[C@H]1C(=O)N[C@@H](CC(N)=O)C(=O)N[C@H]2C(=O)N[C@H]3C(=O)N[C@H](C(=O)N[C@H](C(=O)O)c4cc(O)cc(O)c4-c4cc3ccc4O)[C@H](O)c3ccc(c(Cl)c3)Oc3cc2cc(c3O[C@@H]2O[C@H](CO)[C@@H](O)[C@H](O)[C@H]2O[C@H]2C[C@](C)(N)[C@H](O)[C@H](C)O2)Oc2ccc(cc2Cl)[C@H]1O [Vancomycin]
[18]; Enterococcus faecium (n = 104)
  % R (percent of isolates resistant, clinical breakpoints): 47.1%
[19]; [20]
  % R (percent of isolates resistant, clinical breakpoints): 0%
[19]; Staphylococcus aureus
  MIC: 1 µg/mL (≈ 0.69 µM)

## NC[C@H]1O[C@H](O[C@H]2[C@H](O)[C@@H](O[C@H]3O[C@H](CO)[C@@H](O)[C@H](N)[C@H]3O)[C@H](N)C[C@@H]2N)[C@H](N)C[C@@H]1O [Tobramycin]
[13]
  % R (percent of isolates resistant, clinical breakpoints): 3.9%
[14]; Pseudomonas aeruginosa
  MIC90: 4 µg/mL (≈ 8.56 µM)
[14]
  % R (percent of isolates resistant, clinical breakpoints): 7.4%
[15]
  % R (percent of isolates resistant, clinical breakpoints): 49.0%
  MIC50: 8 µg/mL (≈ 17.1 µM)
  MIC90: > 64 µg/mL
[15]; read-out: Mode (MIC)
  MIC: > 64 µg/mL
[16]
  % R (percent of isolates resistant, clinical breakpoints): over 60%
  MIC50: 16 µg/mL (≈ 34.2 µM)
  MIC90: 64 µg/mL (≈ 137 µM)
[16]; read-out: Mode (MIC)
  MIC: 16 µg/mL (≈ 34.2 µM)
[17]
  MIC90: 32 µg/mL (≈ 68.4 µM)

## CC(=O)NC[C@H]1CN(c2ccc(N3CCOCC3)c(F)c2)C(=O)O1 [Linezolid]
[18]; Enterococcus faecium (n = 104)
  % R (percent of isolates resistant, clinical breakpoints): 3.8%
[18]; Enterococcus faecium
  MIC: 2 µg/mL (≈ 5.93 µM)
[19]; [20]
  % R (percent of isolates resistant, clinical breakpoints): 1.9%
  MIC90: 2 µg/mL (≈ 5.93 µM)
  MIC: 2 µg/mL (≈ 5.93 µM)
